Source: US11999727B2 (Tango Therapeutics, Inc., priority 2020, dated 2024)
Where two headings read alike, the source gives them in different places.

Assays:
PRMT5 [1] = target: T1, PRMT5 (Homo sapiens, UniProt O14744); assay: PRMT5 biochemical IC50 assay with SAM as cofactor; conditions: PRMT5, SAM as cofactor; read-out: SAM IC50
T1 construct: purchased Viva (custom protein)

[2] = test system: HAP1 MTAP-intact cell line; assay: SDMA in-cell western assay, HAP1 MTAP-intact; assay type: cell-based; conditions: Homo sapiens
In short: (§1)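 Compounds were tested in HAP1 cells differing only in MTAP status (endogenous expression versus null). Cellular SDMA levels were then measured by in-cell western, giving an IC50 in each background.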

PRMT5 [3] = target: T1, PRMT5; assay: PRMT5 biochemical IC50 assay with MTA as cofactor; conditions: PRMT5, MTA as cofactor; read-out: MTA IC50
[4] = test system: HAP1 MTAP-deleted cell line; assay: SDMA in-cell western assay, HAP1 MTAP-deleted; assay type: cell-based; conditions: for IC50: Homo sapiens; for MTAP intact/deleted ratio: SDMA in-cell western
In short: as §1

[5] = test system: HAP1 MTAP-deleted cell line; assay: Viability assay, MTAP-deleted cell line; assay type: cell-based; conditions: Homo sapiens
Description: Table 1 additionally indicates IC50 values in a viability assay for the MTAP-deleted cell line (column 10), indicating the effect of treatment with compound on cell survival.

PRMT5 [6] = target: T1, PRMT5; assay: PRMT5 biochemical IC50 assay with no cofactor; conditions: PRMT5, no cofactor
Description: Table 1 indicates IC50 values (μM) against PRMT5 for exemplary compounds in the presence of SAM as cofactor, with no cofactor, and with MTA as cofactor, respectively (columns 4-6). […] Ki values can be calculated from the IC50 values as described in the Examples section. As detailed in the Examples section, for the assay performed in the presence of SAM, IC50=Ki×1.5 (Ki=IC50/1.5).

[7] = IC50 ratio HAP1 MTAP-intact / HAP1 MTAP-deleted
[8] = HAP1, SDMA in-cell western, HAP1 MTAP-intact, read-out: MTAP HAP1 intact IC50
[9] = HAP1, SDMA in-cell western, HAP1 MTAP-deleted, read-out: HAP 1 MTAP deleted IC50
[10] = HAP1, viability assay, MTAP-deleted cell line, read-out: HAP1 MTAP deleted viability
[11] = read-out: No Cofactor/ rel IC50
[12] = HAP1, SDMA in-cell western, HAP1 MTAP-deleted, read-out: HAP1 MTAP deleted IC50
[13] = HAP1, viability, HAP1 MTAP-deleted cell line, read-out: HAP1 MTAP deleted viability
[14] = IC50 ratio HAP1 MTAP-intact vs HAP1 MTAP-deleted
[15] = HAP1, viability IC50, MTAP-deleted cell line, read-out: HAP1 MTAP deleted viability
[16] = HAP1, viability assay, HAP1 MTAP-deleted, read-out: HAP1 MTAP deleted viability

T1 sequence (O14744 whole entry): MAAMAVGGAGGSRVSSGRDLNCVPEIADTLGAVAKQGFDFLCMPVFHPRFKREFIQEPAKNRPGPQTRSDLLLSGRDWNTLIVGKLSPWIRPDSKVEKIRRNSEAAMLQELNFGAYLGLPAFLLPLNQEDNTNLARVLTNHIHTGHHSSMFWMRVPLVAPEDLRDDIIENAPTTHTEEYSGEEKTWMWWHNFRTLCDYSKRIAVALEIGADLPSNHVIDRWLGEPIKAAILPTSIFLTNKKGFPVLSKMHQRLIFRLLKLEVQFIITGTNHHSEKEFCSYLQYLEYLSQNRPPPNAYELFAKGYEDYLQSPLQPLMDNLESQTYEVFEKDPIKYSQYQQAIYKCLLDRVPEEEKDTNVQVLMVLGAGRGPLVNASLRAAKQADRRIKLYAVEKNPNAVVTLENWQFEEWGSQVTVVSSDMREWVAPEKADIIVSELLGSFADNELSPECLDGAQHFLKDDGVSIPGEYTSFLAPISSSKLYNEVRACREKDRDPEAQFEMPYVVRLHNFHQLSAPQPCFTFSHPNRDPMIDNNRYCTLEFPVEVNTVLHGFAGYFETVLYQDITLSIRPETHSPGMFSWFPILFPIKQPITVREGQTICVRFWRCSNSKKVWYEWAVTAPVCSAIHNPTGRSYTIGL
T1 sequence (Q9BQA1 whole entry partner): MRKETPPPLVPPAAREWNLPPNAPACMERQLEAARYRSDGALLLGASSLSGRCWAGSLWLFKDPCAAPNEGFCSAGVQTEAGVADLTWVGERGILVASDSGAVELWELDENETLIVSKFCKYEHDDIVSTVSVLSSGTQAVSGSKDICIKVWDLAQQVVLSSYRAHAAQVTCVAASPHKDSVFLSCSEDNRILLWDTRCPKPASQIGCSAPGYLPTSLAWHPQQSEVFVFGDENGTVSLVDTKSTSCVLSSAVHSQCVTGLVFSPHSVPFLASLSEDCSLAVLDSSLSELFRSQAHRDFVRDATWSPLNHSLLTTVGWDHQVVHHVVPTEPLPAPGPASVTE

Row | Compound | IC50 (PRMT5 [1]) [nM] | IC50 ([2]; HAP1, read-out: MTAP HAP1 intact IC50) [nM] | IC50 (PRMT5 [3]) [nM] | IC50 ([4]; HAP1, read-out: HAP1 MTAP deleted IC50) [nM] | MTAP intact/deleted ratio [4, 7] | IC50 ([5]; HAP1, read-out: HAP1 MTAP deleted viability) [nM] | IC50 (PRMT5 [6]; read-out: No Cofactor/rel IC50) [nM] | IC50 [2, 8] [nM] | IC50 [4, 9] [nM] | IC50 [5, 10] [nM] | IC50 (PRMT5 [6]; [11]) [nM] | IC50 [4, 12] [nM] | IC50 [5, 13] [nM] | MTAP intact/deleted ratio [4, 14] | IC50 [5, 15] [nM] | IC50 [5, 16] [nM]
1 | COc1ncc(NC(=O)C(=O)N2C[C@@H](C)CC[C@@H]2c2ccc3scnc3c2)cc1C(N)=O (single isomer, unassigned) [Compound 602] | < 50 | 100 to 1000 | < 50 | < 100 | A (an IC50 ratio greater than or equal to 10 fold) | < 1000 | < 50 | – | – | – | – | – | – | – | – | –
2 | Cc1ccc2cc([C@@H]3CC[C@@H](C)CN3C(=O)C(=O)Nc3cncc(C(N)=O)c3)ccc2n1 (racemic) [Compound 167, rac-5-{2-[(2R,5S)-5-Methyl-2-(2-methylquinolin-6-yl)piperidin-1-yl]-2-oxoacetamido}pyridine-3-carboxamide] | 50 to 500 | – | < 50 | – | A (an IC50 ratio greater than or equal to 10 fold) | – | – | > 1000 | 100 to 1000 | 1000 to 10000 | 50 to 500 | – | – | – | – | –
3 | CO[C@@H]1C[C@@H](c2ccc3scnc3c2)N(C(=O)C(=O)Nc2cnc(N)c(C)c2)C[C@@H]1C (single isomer, unassigned) [Compound 1130] | > 500 | – | > 500 | – | – | – | > 500 | > 1000 | – | > 10000 | – | > 1000 | – | – | – | –
4 | CCc1cc(NC(=O)C(=O)N2C[C@@H](C)CC[C@@H]2c2cccc(OCCN3CCCC3)c2)cnc1N [Compound 1391, N-(6-amino-5-ethylpyridin-3-yl)-2-((2R,5)-5-methyl-2-(3-(2-(pyrrolidin-1-yl)ethoxy)phenyl)piperidin-1-yl)-2-oxoacetamide] | < 50 | – | < 50 | – | A (an IC50 ratio greater than or equal to 10 fold) | – | – | 100 to 1000 | < 100 | – | < 50 | – | < 1000 | – | – | –
5 | CCc1cc(NC(=O)C(=O)N2C[C@@H](C)CC[C@@H]2c2cccc([C@@H]3CCCN(C)C3)c2)cnc1N [Compound 1090, N-(6-amino-5-ethyl-3-pyridyl)-2-oxo-2-[(2R,5S)-5-methyl-2-[3-[(3S)-1-methyl-3-piperidyl]phenyl]-1-piperidyl]acetamide] | < 50 | – | < 50 | – | – | – | < 50 | 100 to 1000 | – | < 1000 | – | < 100 | – | A (an IC50 ratio greater than or equal to 10 fold) | – | –
6 | CCc1cc(NC(=O)C(=O)N2C[C@@H](C)CC[C@@H]2c2ccc3sc(C4CCN(CC)CC4)nc3c2)cnc1N [Compound 1252, N-(6-amino-5-ethylpyridin-3-yl)-2-((2R,53)-2-(2-(1-ethylpiperidin-4-yl)benzo[d]thiazol-5-yl)-5-methylpiperidin-1-yl)-2-oxoacetamide] | 50 to 500 | – | < 50 | – | A (an IC50 ratio greater than or equal to 10 fold) | – | – | < 100 | < 100 | – | < 50 | – | < 1000 | – | – | –
7 | CCc1cc(NC(=O)C(=O)N2C[C@@H](C)CC[C@@H]2c2ccc(N3CCOC4(CN(C)C4)C3)cc2)cnc1N (single isomer, unassigned) [Compound 1339] | 50 to 500 | – | < 50 | – | A (an IC50 ratio greater than or equal to 10 fold) | – | – | 100 to 1000 | < 100 | – | < 50 | – | < 1000 | – | – | –
8 | NC(=O)c1cncc(NC(=O)C(=O)N2CCCC3(CCSCC3)C2)c1 [Compound 166, 5-(2-Oxo-2-{9-thia-2-azaspiro[5.5]undecan-2-yl}acetamido)pyridine-3-carboxamide] | > 500 | – | 50 to 500 | – | C (an IC50 ratio of less than 3 fold) | – | – | > 1000 | > 1000 | > 10000 | > 500 | – | – | – | – | –
9 | CCc1cc(NC(=O)C(=O)N2C[C@@H](C)CC[C@@H]2c2ccc3sc([C@@H]4CN(C)CCO4)nc3c2)cnc1N [Compound 1134, N-(6-amino-5-ethyl-3-pyridyl)-2-oxo-2-[(2R,5S)-5-methyl-2-[2-[(2S)-4-methylmorpholin-2-yl]-1,3-benzothiazol-5-yl]-1-piperidyl]acetamide] | 50 to 500 | – | < 50 | – | – | – | < 50 | < 100 | – | < 1000 | – | < 100 | – | A (an IC50 ratio greater than or equal to 10 fold) | – | –
10 | Cc1ccc([C@@H]2CC[C@@H](C)CN2C(=O)C(=O)Nc2cncc(C(N)=O)c2)cc1O (racemic) [Compound 554, 5-[[2-[(2S,5R)-2-(3-hydroxy-4-methyl-phenyl)-5-methyl-1-piperidyl]-2-oxo-acetyl]amino]pyridine-3-carboxamide] | 50 to 500 | – | < 50 | – | A (an IC50 ratio greater than or equal to 10 fold) | – | 50 to 500 | > 1000 | < 100 | – | – | – | – | – | 1000 to 10000 | –
11 | COc1ncc(NC(=O)C(=O)N2C[C@@H](C)CC[C@@H]2c2ccc(CCN(C)C)c(Cl)c2)cc1C(N)=O [Compound 1341, 5-(2-((2R,5S)-2-(3-chloro-4-(2-(dimethylamino)ethyl)phenyl)-5-methylpiperidin-1-yl)-2-oxoacetamido)-2-methoxynicotinamide] | 50 to 500 | – | < 50 | – | – | – | – | > 1000 | < 100 | – | < 50 | – | < 1000 | – | – | –
12 | Cc1cc(NC(=O)C(=O)N2C[C@H](C)CC[C@H]2c2ccn(-c3ccn[nH]3)n2)cnc1N (racemic) [Compound 715, 2-(2-(1′H-[1,3′-bipyrazol]-3-yl)-5-methylpiperidin-1-yl)-N-(6-amino-5-methylpyridin-3-yl)-2-oxoacetamide] | > 500 | – | 50 to 500 | – | A (an IC50 ratio greater than or equal to 10 fold) | – | 50 to 500 | > 1000 | – | – | – | < 100 | – | – | – | 1000 to 10000
13 | CCc1cc(NC(=O)C(=O)N2C[C@@H](C)CC[C@@H]2c2ccn(-c3cc[nH]n3)n2)cnc1N (single isomer, unassigned) [Compound 913] | > 500 | – | > 500 | – | C (an IC50 ratio of less than 3 fold) | – | > 500 | > 1000 | > 1000 | > 10000 | – | – | – | – | – | –
14 | Cc1cc(NC(=O)C(=O)N2C[C@H](C)CC[C@H]2[C@H]2CCC[C@H](O)C2)cnc1N (single isomer, unassigned) [Compound 559] | 50 to 500 | – | < 50 | – | A (an IC50 ratio greater than or equal to 10 fold) | – | 50 to 500 | > 1000 | 100 to 1000 | – | – | – | – | – | 1000 to 10000 | –
15 | Cc1cc(NC(=O)C(=O)N2C[C@H](C)CC[C@H]2c2cccc3[nH]ncc23)cnc1N (single isomer, unassigned) [Compound 785] | 50 to 500 | – | < 50 | – | A (an IC50 ratio greater than or equal to 10 fold) | – | < 50 | 100 to 1000 | – | – | – | < 100 | – | – | – | < 1000
16 | C[C@@H]1CC[C@@H](c2ccc(F)c(F)c2)N(C(=O)C(=O)Nc2cncc(C(N)=O)c2)C1 (racemic) [Compound 263, rac-5-{2-[(2R,5S)-2-(3,4-Difluorophenyl)-5-methylpiperidin-1-yl]-2-oxoacetamido}pyridine-3-carboxamide] | 50 to 500 | – | < 50 | – | A (an IC50 ratio greater than or equal to 10 fold) | – | 50 to 500 | > 1000 | – | 1000 to 10000 | – | 100 to 1000 | – | – | – | –
17 | Cc1cc(NC(=O)C(=O)N2C[C@H](C)CC[C@H]2c2ccc(-c3nccs3)cc2)cnc1N (single isomer, unassigned) [Compound 816] | > 500 | – | > 500 | – | C (an IC50 ratio of less than 3 fold) | – | > 500 | > 1000 | – | – | – | > 1000 | – | – | – | > 10000
18 | C[C@@H]1CC[C@@H](c2ccc(-c3ccn[nH]3)cc2)N(C(=O)C(=O)Nc2cncc(C(N)=O)c2)C1 (racemic) [Compound 524, 5-[[2-[(2S,5R)-5-methyl-2-[4-(1H-pyrazol-5-yl)phenyl]-1-piperidyl]-2-oxo-acetyl]amino]pyridine-3-carboxamide] | 50 to 500 | – | 50 to 500 | – | A (an IC50 ratio greater than or equal to 10 fold) | – | 50 to 500 | > 1000 | – | 1000 to 10000 | – | 100 to 1000 | – | – | – | –
